According to patent US11931338B2, “Nitrilated psilocybin derivatives and methods of using” (Enveric Biosciences Canada Inc., priority 2020, dated 2024):

Columns and labels:
5-HT1A receptor = target: T1, 5-HT1A receptor (Homo sapiens, UniProt P08908); assay: cAMP-Glo assay in CHO-K1/5-HT1A/Gα15 (+5-HT1A) and CHO-K1/Gα15 (−5-HT1A) cells; conditions: for luminescence (cAMP) in +5HT1A cell culture at various compound concentrations: 5-HT1A activity: fixed (4 μM) forskolin, +5HT1A cells, FIG. 14B-14D; for relative cAMP levels with increasing compound concentration in +5HT1A and −5HT1A cells: constant (4 μM) forskolin, 5-HT1AR cells vs CHO-K1 cells, n=3, FIG. 14F, 14G
T1 sequence (P08908 1-422): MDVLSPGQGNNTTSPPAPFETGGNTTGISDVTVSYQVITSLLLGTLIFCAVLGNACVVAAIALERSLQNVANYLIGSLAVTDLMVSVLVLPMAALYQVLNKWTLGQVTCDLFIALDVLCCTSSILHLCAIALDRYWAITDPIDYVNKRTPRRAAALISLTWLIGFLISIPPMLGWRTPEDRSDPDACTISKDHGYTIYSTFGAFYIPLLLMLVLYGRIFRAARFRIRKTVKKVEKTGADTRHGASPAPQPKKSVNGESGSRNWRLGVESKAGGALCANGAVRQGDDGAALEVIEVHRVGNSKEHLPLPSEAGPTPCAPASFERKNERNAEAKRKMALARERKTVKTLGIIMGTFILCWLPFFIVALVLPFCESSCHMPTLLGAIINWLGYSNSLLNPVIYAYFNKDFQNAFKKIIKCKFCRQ
Description: CHO-K1/Gα15 (GenScript, M00257) (−5-HT1A) and CHO-K1/5-HT1A/Gα15 (GenScript, M00330) (+5-HT1A) cells lines were used. Briefly, CHO-K1/Gα15 is a control cell line that constitutively expresses Gα15 which is a promiscuous Gq protein. This control cell line lacks any transgene encoding 5-HT1A receptors, but still respond to forskolin; thus, cAMP response to forskolin should be the same regardless of whether or not 5-HT1A agonists are present. Conversely, CHO-K1/5-HT1A/Gα15 cells stably express 5-HT1A receptor in the CHO-K1 host background. […] In contrast, tryptophan is not known to activate 5-HT1A receptors, and was thus used as a negative control. Cells were maintained in complete growth media as recommended by supplier (GenScript) which is constituted as follows: Ham's F12 Nutrient mix (HAM's F12, GIBCO #11765-047) with 10% fetal bovine serum (FBS) (Thermo Scientific #12483020), 200 μg/ml zeocin (Thermo Scientific #R25005) and/or 100 μg/ml hygromycin (Thermo Scientific #10687010). The cells were cultured in a humidified incubator with 37° C. and 5% CO2. Cells maintenance was carried out as recommended by the cell supplier. Briefly, vials with cells were removed from the liquid nitrogen and thawed quickly in 37° C. water bath. Just before the cells were completely thawed the vial's outside was decontaminated by 70% ethanol spray. The cells suspension was then retrieved from the vial and added to warm (37° C.) complete growth media, and centrifuged at 1,000 rpm for 5 minutes. The supernatant was discarded and the cell pellet was then resuspended in another 10 ml of complete growth media, and added to the 10 cm cell culture dish (Greiner Bio-One #664160). The media was changed every third day until the cells were about 90% confluent. The ˜90% confluent cells were then split 10:1 for maintenance or used for experiment. As 5-HT1AR activation inhibits cAMP formation, the agonist activity of test molecules on 5-HT1AR was measured via the reduction in the levels of cAMP produced due to application of 4 μM forskolin. The change in intracellular cAMP levels due to the treatment of novel molecules was measured using cAMP-Glo Assay kit (Promega #V1501). Briefly, +5-HT1A cells were seeded on 1-6 columns and base −5-HT1A cells were seeded on columns 7-12 of the white walled clear bottom 96-well plate (Corning, #3903). Both cells were seeded at the density of 30,000 cells/well in 100 μl complete growth media and cultured 24 hrs in humidified incubator at 37° C. and 5% CO2. On the experiment day, the media of cells was replaced with serum/antibiotic free culture media. Then the cells were treated for 20 minutes with test molecules dissolved in induction medium (serum/antibiotic free culture media containing 4 μM forskolin, 500 μM IBMX (isobutyl-1-methylxanthine, Sigma-Aldrich, Cat. #17018) and 100 μM (RO 20-1724, Sigma-Aldrich, Cat. #B8279)). Forskolin induced cAMP formation whereas IBMX and RO 20-1724 inhibited the degradation of cAMP. PKA was added to the lysate, mixed, and subsequently the substrate of the PKA was added. PKA was activated by cAMP, and the amount of ATP consumed due to PKA phosphorylation directly corresponded to cAMP levels in the lysate. Reduced ATP caused reduced conversion of luciferin to oxyluciferin, conferring diminished luminescence as the result of 5-HT1A activation.

5-HT2A receptor = target: T2, 5-HT2A receptor (Homo sapiens, UniProt P28223); assay: [3H]ketanserin competition binding assay (Scintillation Proximity Assay) with membranes containing 5-HT2A; conditions: fixed (1 nM) [3H]ketanserin; FIG. 13C, 13D
T2 construct: purchased PerkinElmer ES-313-M400UA
T2 sequence (P28223 whole entry): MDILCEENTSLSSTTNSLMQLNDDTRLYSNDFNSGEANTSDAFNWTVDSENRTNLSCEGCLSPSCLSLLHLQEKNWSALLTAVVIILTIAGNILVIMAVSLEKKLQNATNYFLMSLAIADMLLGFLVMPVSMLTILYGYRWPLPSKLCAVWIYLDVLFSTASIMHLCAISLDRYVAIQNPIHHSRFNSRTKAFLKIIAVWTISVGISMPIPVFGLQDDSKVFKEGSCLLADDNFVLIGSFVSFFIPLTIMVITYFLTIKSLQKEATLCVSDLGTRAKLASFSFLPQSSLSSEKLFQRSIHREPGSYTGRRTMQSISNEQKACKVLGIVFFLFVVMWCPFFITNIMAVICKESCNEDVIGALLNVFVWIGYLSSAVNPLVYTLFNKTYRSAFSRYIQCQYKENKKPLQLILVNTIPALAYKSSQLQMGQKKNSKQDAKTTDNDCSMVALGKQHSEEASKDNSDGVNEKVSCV
Description: Evaluation of drug binding is an essential step to characterization of all drug-target interactions (Fang 2012, Exp Opin Drug Discov 7:969). The binding affinity of a drug to a target is traditionally viewed as an acceptable surrogate of its in vivo efficacy (Núñez et al., 2012, Drug Disc Today 17: 10). Competition assays, also called displacement or modulation binding assays, are a common approach to measure activity of a ligand at a target receptor (Flanagan 2016, Methods Cell Biol 132: 191). In these assays, standard radioligands acting either as agonists or antagonists are ascribed to specific receptors. […] After incubation, the samples were read on a MicroBeta 2 Microplate Counter (Perkin Elmer). […] Equilibrium binding constants for ketanserin (Kd) were determined from saturation binding curves using the ‘one-site saturation binding analysis’ method of GraphPad PRISM software (Version 9.2.0). […] Ki values were calculated from the competition displacement data using the competitive binding analysis from GraphPad PRISM software. […] Specific binding in counts per minute (cpm) was calculated by subtracting non-specific binding from total binding. Specific binding (pmol/mg) was calculated from pmol of [^3H]ketanserin bound per mg of protein in the assay. The Kd was calculated by fitting the data with the one-site binding model of PRISM software (version 9.2.0).

Structure (SMILES)	luminescence (cAMP) in +5HT1A cell culture at various compound concentrations: 5-HT1A activity (5-HT1A receptor)	relative cAMP levels with increasing compound concentration in +5HT1A and −5HT1A cells (5-HT1A receptor)	competition binding curve against [3H]ketanserin at the 5-HT2A receptor (5-HT2A receptor)
CN(C)CCc1c[nH]c2ccccc12 [DMT]	5-HT1A activity	–	–
CC(=O)NCCc1c[nH]c2c(C)cc(C#N)cc12 [compound (VIII), N-[2-(5-cyano-7-methyl-1H-indol-3-yl)ethyl]acetamide]	5-HT1A activity	agonist of 5HT1A	–
CN(C)CCc1c[nH]c2cccc(O)c12 [psilocin]	–	–	binding
NCCc1c[nH]c2ccc(O)cc12 [serotonin]	–	agonist of 5HT1A	–
N[C@@H](Cc1c[nH]c2ccccc12)C(=O)O [tryptophan]	lack of 5-HT1A activity	–	no binding
